Target: S. aureus DNA gyrase (Staphylococcus aureus, UniProt P0A0K8+P20831)
Assay: DNA gyrase supercoiling inhibition assay
Format: biochemical
Conditions: read-out: IC50(μM) (mean ± SEM) / S. aureusDNA gyrase supercoiling

S. aureus DNA gyrase, sequence (P20831 whole entry): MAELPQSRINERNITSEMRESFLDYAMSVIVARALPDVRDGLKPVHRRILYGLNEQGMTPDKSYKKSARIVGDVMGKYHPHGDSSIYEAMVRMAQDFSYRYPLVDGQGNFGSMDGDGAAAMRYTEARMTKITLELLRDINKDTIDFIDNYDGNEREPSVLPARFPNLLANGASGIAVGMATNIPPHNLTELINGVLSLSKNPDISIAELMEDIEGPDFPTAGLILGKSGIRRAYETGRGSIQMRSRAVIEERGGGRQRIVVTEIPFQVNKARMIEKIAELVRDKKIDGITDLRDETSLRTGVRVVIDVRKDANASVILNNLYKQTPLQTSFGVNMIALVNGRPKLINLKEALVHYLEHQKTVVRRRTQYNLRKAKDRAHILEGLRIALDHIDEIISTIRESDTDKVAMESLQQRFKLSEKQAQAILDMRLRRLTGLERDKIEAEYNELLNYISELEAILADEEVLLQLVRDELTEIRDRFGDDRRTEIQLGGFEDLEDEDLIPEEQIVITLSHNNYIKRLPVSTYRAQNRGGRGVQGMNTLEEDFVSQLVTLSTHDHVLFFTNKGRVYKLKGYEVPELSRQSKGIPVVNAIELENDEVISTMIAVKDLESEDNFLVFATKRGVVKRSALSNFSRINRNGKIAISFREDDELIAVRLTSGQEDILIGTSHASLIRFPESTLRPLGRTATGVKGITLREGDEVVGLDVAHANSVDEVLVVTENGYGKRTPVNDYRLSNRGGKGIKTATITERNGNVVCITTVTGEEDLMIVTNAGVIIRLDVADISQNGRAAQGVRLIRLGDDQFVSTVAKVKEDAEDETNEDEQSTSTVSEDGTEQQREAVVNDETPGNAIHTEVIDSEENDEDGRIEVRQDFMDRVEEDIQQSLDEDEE
S. aureus DNA gyrase, sequence (P0A0K8 2-644): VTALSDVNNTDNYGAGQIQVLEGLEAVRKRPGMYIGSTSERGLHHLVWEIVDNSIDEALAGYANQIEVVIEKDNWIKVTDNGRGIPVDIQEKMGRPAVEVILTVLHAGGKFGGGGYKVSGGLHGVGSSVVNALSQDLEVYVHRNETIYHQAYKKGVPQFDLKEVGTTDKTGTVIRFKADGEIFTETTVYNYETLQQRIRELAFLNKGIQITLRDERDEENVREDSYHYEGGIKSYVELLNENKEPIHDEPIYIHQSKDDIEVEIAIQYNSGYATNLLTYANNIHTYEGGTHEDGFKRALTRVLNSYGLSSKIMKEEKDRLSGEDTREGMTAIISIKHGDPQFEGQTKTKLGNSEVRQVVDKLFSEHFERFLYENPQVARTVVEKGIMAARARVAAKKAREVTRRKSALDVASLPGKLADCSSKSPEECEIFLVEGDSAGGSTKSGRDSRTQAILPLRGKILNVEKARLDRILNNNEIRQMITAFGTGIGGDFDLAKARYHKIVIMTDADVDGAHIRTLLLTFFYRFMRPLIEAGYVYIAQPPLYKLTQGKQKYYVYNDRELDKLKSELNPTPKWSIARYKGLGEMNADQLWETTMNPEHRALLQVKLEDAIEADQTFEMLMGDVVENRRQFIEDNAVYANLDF

SMILES: CS(=O)(=O)N1SCC(=O)c2c1sc1c2SC2N(c3ccccc3)C(=O)c3ccccc3N12 (centres unmarked) [compound 4, 11-(methylsulfonyl)-6-phenyl-6,6a-dihydro-5H,9H-[1,2]thiazino[4″,3”:4′,5′]thieno[2′,3′:4,5]thiazolo[3,2-a]quinazoline-5,8(11H)-dione]
- IC50: 11.7 ± 0.47 µM

SMILES: CCOC(=O)c1c(-n2cnnn2)sc2c1SC1N(c3ccccc3)C(=O)c3ccccc3N21 (centres unmarked) [compound 5, Ethyl 5-Oxo-6-phenyl-9-(1H-tetrazol-1-yl)-6,6a-dihydro-5H-thieno[2′,3′:4,5]thiazolo[3,2-a]quinazoline-8-carboxylate]
- IC50: 7.13 ± 0.28 µM

From paper PMC11904721 (ACS Omega, 2025)
